Here are results for 2 compounds from patent EP0426075A1, “Benzylpyrrolidine derivatives as dopamine agonists” (SYNTEX (U.S.A.) INC., priority 1989, dated 1991).

Molecules are shown by their SMILES.

For one assay, the system named is DA2 receptor. Put plainly: Goldberg in situ femoral arterial preparation (DA2 assay), intra-arterial injection. In kind it is in vivo, dog. Conditions: optimal response of test compound divided by optimal response of DPDA. As for the experimental part:
(§1) The compounds were subsequently tested following intra-arterial administration in an in situ renal and femoral arterial preparation in the dog, as developed by L.I. Goldberg, to test for DA1 and DA2 dopamine activity, respectively. Details of the methodology are provided in the European J. Pharmacol. 89 :137, 1983, as well as in Hypertension 6 :1-25, 1984.
(§2) The compounds of this invention were tested following intra-arterial administration in an in situ renal and femoral arterial preparation in the dog, as developed by L.I. Goldberg, to test for DA1 and DA2 dopamine activity, respectively. Details of the methodology are provided in the European J. Pharmacol. , 89 :137, 1983, as well as in Hypertension , 6 :1-25, 1984. J. L. McNay, L. I. Goldberg JPET 151 :23-31, 1966.
(§3) The compounds were injected directly into the renal or femoral artery for analysis of DA, or DA2 activity, respectively. […] The compounds were tested for relative activity in comparison to the standard DA, agonist, dopamine or the standard DA2 agonist, DPDA. Specific DA, or DA2 activity of the tested compound was verified by Sch 23390 or domperidone blockade.
(§4) Adult mongrel dogs of either sex (12-20 kg) were anesthetized with pentobarbital sodium (33 mg/kg, i.v.). The animals were intubated and ventilated with room air using a Harvard respirator.
(§5) The compounds of this invention were tested following intra-arterial administration in an in situ renal and femoral arterial preparation in the dog, as developed by L.I. Goldberg, to test for DA1 and DA2 dopamine activity, respectively. Details of the methodology are provided in the European J. Pharmacol. , 89 :137, 1983, as well as in Hypertension , 6 :1-25, 1984. J. L. McNay, L. I. Goldberg JPET 151 :23-31, 1966
(§6) The compounds were injected directly into the renal or femoral artery for analysis of DA1 or DA2 activity, respectively. […] The compounds were tested for relative activity in comparison to the standard DA1 agonist, dopamine or the standard DA2 agonist, DPDA. Specific DA, or DA2 activity of the tested compound was verified by Sch 23390 or domperidone blockade.
The thoracic aorta was catheterized with a Millar micro-tip (size 5F) transducer via the right carotid artery for blood pressure monitoring. The right external jugular vein was cannulated with PE-160 tubing for supplemental pentobarbital administration. The left femoral artery was isolated and an electromagnetic flowprobe of the appropriate size (8-11 mm circ.) was placed around the artery and connected to a Caroline Medical electromagnetic flowmeter. Surface ECG leads were placed subcutaneously on the chest and limbs to monitor heart rate. A 25 gauge 3/4" needle bent 90` , 4 mm from the tip, was placed in the femoral artery proximal to the probe and connected to an infusion pump delivering saline at a constant rate of 1 ml/min. Following a saline and bradykinin challenge (0.02 to 0.04 nmoles, in 0.2 ml saline, i.a.), a dose response curve for DPDA was generated by injecting 4-fold increasing doses i.a. ranging from 3 to 48 nmoles in 0.2 ml saline. Test compounds were injected similarly in 4-fold increasing doses up to 3000 nmoles. Compounds were then repeated at their optimal dose following domperidone pretreatment (10-40 Ilg/kg, iv).
Efficacy ratios were determined by division of the optimal response of the test compound by the optimal response of the standard agent. The optimal dose of compound was defined as that which produced a maximum increase in blood flow before causing a change in systemic blood pressure. ED50 values were derived by regression analysis from individually generated dose response curves. Potency ratios were the quotients calculated from the division of the standard agent EDso by the ED50 of the test compound. […] If the inhibition of the test compound was similar to that of dopamine or DPDA, the compound was considered to be a DA, or DA2 agonist, respectively.

The test system of a further assay is DA1 receptor. Briefly: Goldberg in situ renal arterial preparation (renal DA1 assay), intra-arterial injection. The format is in vivo, dog. The note with it: optimal response of test compound divided by optimal response of dopamine. On the procedure:
as §1, §2, §3, §4, §5, §6
The abdominal aorta was catheterized with a Millar micro-tip (size: 5F) transducer via the right femoral artery for blood pressure monitoring. The right femoral vein was cannulated with PE-160 tubing for iv saline infusion, as well as supplemental pentobarbital administration. The left renal artery was isolated through a lateral abdominal incision. An electromagnetic flowprobe of the appropriate size (8-11 mm circ.) was placed around the artery and connected to a Carolina Medical electromagnetic flowmeter. Surface ECG leads were placed subcutaneously on the chest and limbs to monitor heart rate. A 25 gauge 3/4" needle bent 90°, 4 mm from the tip, was placed in the renal artery proximal to the probe and connected to an infusion pump delivering saline at a constant rate of 1 ml/min. Following a saline and 1µg norepinephrine (NE) challenge, both given in an injection volume of 0.2 ml, the animal was treated with a phenoxybenzamine, 0.5 mg/kg/min i.a., infusion for a duration of 10-20 minutes as necessary to achieve a complete blockade of the NE challenge. Blood pressure was maintained by supplemental saline infusion (10-20 ml/kg, iv). Bradykinin, a standard for nonspecific vasodilation, was given at 0.60 nmole doses, in 0.2 ml saline, i.a., prior to generating a dose response curve for dopamine in which 4-fold increasing doses, ranging from 3 to 48 nmoles, were injected i.a. in 0.2 ml of saline (i.a. bolus). Test compounds were injected similarly in 4-fold increasing doses up to a maximum of 3000 nmoles. Compounds were then repeated at their optimal dose following Sch 23390 pretreatment (0.05 - 0.10 mg/kg, iv).
Efficacy ratios were determined by division of the optimal response of the test compound by the optimal response of the standard agent.

As to `CCCN(CCC)CCc1ccc(O)c(O)c1` [DPDA, di-propyl dopamine, reference compound], the “Relative Efficacy to DA2 Standard” value in the assay on DA2 receptor came to 1.00. In the case of `Cl.NCCc1ccc(O)c(O)c1` [Dopamine, 4-(2-aminoethyl)-1,2-Benzenediol hydrochloride], in the assay with DA1 receptor, the “Relative Efficacy to DA1 Standard” value turned out to be 1.00.
